Tested on: SARS Cov-2 virus
Assay type: cell-based
Details: 90 μL test solution + 10 μL virus (about 10^5 PFU/ml), 3 minutes contact at room temperature; plaque assay on Vero E6 cells

## O=C(O)CN(CCN(CC(=O)O)CC(=O)O)CC(=O)O [EDTA 5%, ethylenediaminetetraacetic acid]
  Residual Viral Load (Log PFU/0.1 ml): 3.40 Log PFU/0.1 ml

Source: patent US20240261244A1, “METHODS FOR TREATING VIRAL INFECTIONS” (Daarsh Innovations, Inc., priority 2023, published 2024)
